The values that follow are results of earlier work, collected in PMC3117075 (Journal of medicinal chemistry, 2011).

The data set deals with BRCT(BRCA1) (Homo sapiens, UniProt P38398). As to conditions: previously reported value.
Sequence of BRCT(BRCA1) (P38398 1646-1859 limits assumed): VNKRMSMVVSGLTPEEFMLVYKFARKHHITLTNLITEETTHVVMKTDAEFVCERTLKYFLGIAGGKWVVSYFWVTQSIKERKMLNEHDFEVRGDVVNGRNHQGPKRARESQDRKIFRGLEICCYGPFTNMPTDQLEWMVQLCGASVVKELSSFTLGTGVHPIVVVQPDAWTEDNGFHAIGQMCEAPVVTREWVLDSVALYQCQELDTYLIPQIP

For ISRSTpSPTFNKQT, the “ΔCp (change in heat capacity at constant pressure)” value is -340 ± 30 cal mol-1 K-1.
